Data from patent publication US10414740B2, “Glutaminase inhibitors and method of use” (Agios Pharmaceuticals, Inc., priority 2012, dated 2019).

target: T1, glutaminase (GAC) (Homo sapiens, UniProt O94925); assay: glutaminase coupled endpoint assay (Example A); assay type: biochemical; details: inhibition of glutaminase; IC50 tested in an assay of Example A or Example B
T1 sequence (O94925 55-598 isoform O94925-3 limits assumed): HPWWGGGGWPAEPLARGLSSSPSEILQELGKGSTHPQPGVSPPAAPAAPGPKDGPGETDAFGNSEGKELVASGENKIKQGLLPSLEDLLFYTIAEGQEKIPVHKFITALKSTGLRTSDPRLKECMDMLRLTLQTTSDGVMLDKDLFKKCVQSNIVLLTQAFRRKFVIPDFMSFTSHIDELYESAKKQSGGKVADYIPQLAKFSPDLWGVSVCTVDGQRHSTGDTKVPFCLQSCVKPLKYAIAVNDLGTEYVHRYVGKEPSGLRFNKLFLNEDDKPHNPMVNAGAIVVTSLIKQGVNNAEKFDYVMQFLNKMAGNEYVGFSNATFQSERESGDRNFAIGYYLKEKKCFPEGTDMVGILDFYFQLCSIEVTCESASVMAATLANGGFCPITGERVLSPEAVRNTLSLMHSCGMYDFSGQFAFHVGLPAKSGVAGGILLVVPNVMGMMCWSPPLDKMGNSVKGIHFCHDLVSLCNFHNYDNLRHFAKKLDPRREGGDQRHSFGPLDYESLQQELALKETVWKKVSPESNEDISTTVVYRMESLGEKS
Outline: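 Coupled endpoint read-out: glutamate from GAC is converted by excess GDH, and diaphorase recycles NADH to NAD while reducing resazurin to fluorescent resorufin, so loss of signal means inhibition. Compound in DMSO is preincubated with enzyme for 60 min at room temperature before substrate is added. Hits are counterscreened against GDH/diaphorase alone.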

Row | SMILES | IC50
1 | Cc1ccccc1CC(=O)Nc1nnc(CCCCc2nnc(NC(=O)Cc3ccccc3C)s2)s1 [Compound 114, N,N′-(5,5′-(butane-1,4-diyl)bis(1,3,4-thiadiazole-5,2-diyl))bis(2-o-tolylacetamide)] | 100 to 500 nM
2 | Cn1nc(CC(=O)Nc2nnc(CCCCc3nnc(NC(=O)Cc4nn(C)c5ccccc45)s3)s2)c2ccccc21 [Compound 122, N,N′-(5,5′-(butane-1,4-diyl)bis(1,3,4-thiadiazole-5,2-diyl))bis(2-(1-methyl-1H-indazol-3-yl)acetamide)] | < 100 nM
3 | CC(CC(=O)Nc1nnc(CCCCc2nnc(NC(=O)CC(C)c3ccccc3)s2)s1)c1ccccc1 (stereo not shown) [Compound 110] | 1000 to 10000 nM
4 | CCOC(=O)CCC(=O)Nc1nnc(CCCCc2nnc(NC(=O)CCC(=O)OCC)s2)s1 [Compound 66, Diethyl 4,4′-(5,5′-(butane-1,4-diyl)bis(1,3,4-thiadiazole-5,2-diyl))bis(azanediyl)bis(4-oxobutanoate)] | 100 to 500 nM
5 | O=C(Nc1nnc(CCSCCc2nnc(NC(=O)OC3CCCCC3)s2)s1)OC1CCCCC1 [Compound 8, Dicyclohexyl (5,5′-(thiobis(ethane-2,1-diyl))bis(1,3,4-thiadiazole-5,2-diyl))dicarbamate] | 500 to 1000 nM
6 | O=C(Cc1ccccn1)Nc1nnc(CCCCc2nnc(NC(=O)Cc3ccccn3)s2)s1 [Compound 47, N,N′-(5,5′-(butane-1,4-diyl)bis(1,3,4-thiadiazole-5,2-diyl))bis(2-(pyridin-2-yl)acetamide)] | < 100 nM
7 | O=C(Cc1ccccn1)Nc1nnc(CCCCCCc2nnc(NC(=O)Cc3ccccn3)s2)s1 [Compound 16, N,N′-(5,5′-(hexane-1,6-diyl)bis(1,3,4-thiadiazole-5,2-diyl))bis(2-(pyridin-2-yl)acetamide)] | 1000 to 10000 nM
8 | COc1ccc(CC(=O)Nc2nnc(CCCCc3nnc(NC(=O)Cc4ccc(OC)cc4OC)s3)s2)c(OC)c1 [Compound 119, N,N′-(5,5′-(butane-1,4-diyl)bis(1,3,4-thiadiazole-5,2-diyl))bis(2-(2,4-dimethoxyphenyl)acetamide)] | < 100 nM
9 | Cc1cccc(OCC(=O)Nc2nnc(CCCCc3nnc(NC(=O)COc4cccc(C)c4)s3)s2)c1 [Compound 104] | 1000 to 10000 nM
10 | O=C(CCCC1CCCCC1)Nc1nnc(CCCCc2nnc(NC(=O)CCCC3CCCCC3)s2)s1 [Compound 80, N,N′-(5,5′-(butane-1,4-diyl)bis(1,3,4-thiadiazole-5,2-diyl))bis(4-cyclohexylbutanamide)] | 500 to 1000 nM
11 | O=C(CCc1ccccc1)Nc1nnc(CCS(=O)(=O)CCc2nnc(NC(=O)CCc3ccccc3)s2)s1 [Compound 21, N,N′-(5,5′-(2,2′-sulfonylbis(ethane-2,1-diyl))bis(1,3,4-thiadiazole-5,2-diyl))bis(3-phenylpropanamide)] | < 100 nM
12 | CN(CC(=O)Nc1nnc(CCCCc2nnc(NC(=O)CN(C)C(=O)OC(C)(C)C)s2)s1)C(=O)OC(C)(C)C [Compound 46, Di-tert-butyl 2,2′-(5,5′-(butane-1,4-diyl)bis(1,3,4-thiadiazole-5,2-diyl))bis(azanediyl)bis(2-oxoethane-2,1-diyl)bis(methylcarbamate)] | 100 to 500 nM
13 | CC(CC(=O)c1ccccc1)C(=O)Nc1nnc(CCCCc2nnc(NC(=O)C(C)CC(=O)c3ccccc3)s2)s1 (stereo not shown) [Compound 62, N,N′-(5,5′-(butane-1,4-diyl)bis(1,3,4-thiadiazole-5,2-diyl))bis(2-methyl-4-oxo-4-phenylbutanamide)] | 100 to 500 nM
14 | O=C(Cc1n[nH]c2ccccc12)Nc1nnc(CCCCc2nnc(NC(=O)Cc3n[nH]c4ccccc34)s2)s1 [Compound 126, N,N′-(5,5′-(butane-1,4-diyl)bis(1,3,4-thiadiazole-5,2-diyl))bis(2-(1H-indazol-3-yl)acetamide)] | < 100 nM
15 | O=C(Nc1nnc(CCSCCc2nnc(NC(=O)Oc3ccccc3)s2)s1)Oc1ccccc1 [Compound 1, Diphenyl (5,5′-(thiobis(ethane-2,1-diyl))bis(1,3,4-thiadiazole-5,2-diyl))dicarbamate] | 1000 to 10000 nM
16 | O=C(Nc1nnc(CCS(=O)(=O)CCc2nnc(NC(=O)OCc3ccccc3)s2)s1)OCc1ccccc1 [Compound 19, Dibenzyl (5,5′-(sulfonylbis(ethane-2,1-diyl))bis(1,3,4-thiadiazole-5,2-diyl))dicarbamate] | < 100 nM
17 | O=C(Cc1ccccn1)Nc1nnc(CCC(O)CCc2nnc(NC(=O)Cc3ccccn3)s2)s1 [Compound 108] | 1000 to 10000 nM
18 | O=C(CCC(=O)c1ccccc1)Nc1nnc(CCCCc2nnc(NC(=O)CCC(=O)c3ccccc3)s2)s1 [Compound 112, N,N′-(5,5′-(butane-1,4-diyl)bis(1,3,4-thiadiazole-5,2-diyl))bis(4-oxo-4-phenylbutanamide)] | 100 to 500 nM
19 | O=C(Nc1nnc(CCCCc2nnc(NC(=O)C3CC=CC3)s2)s1)C1CC=CC1 [Compound 64, N,N′-(5,5′-(butane-1,4-diyl)bis(1,3,4-thiadiazole-5,2-diyl))dicyclopent-3-enecarboxamide] | 100 to 500 nM
